# Results from patent publication US9493466B2, “Treatment of cancer with TOR kinase inhibitors” (Signal Pharmaceuticals, LLC, priority 2011, dated 2016).
# Tests used:
# [1] = tested on: advanced solid tumors, non-Hodgkin lymphoma or multiple myeloma; assay: Phase 1/2 study Part A: tumor response; assay type: in vivo, human
# Source text: Subjects will be evaluated for efficacy every 2 cycles through cycle 6 and every 3 cycles thereafter. The primary efficacy variable is response. Tumor assessments, including imaging (CT, MRI and/or PET) of the chest and abdomen and other sites as appropriate, will be performed during Screening. Subjects with brain lesions will also have brain scans at Screening and during follow-up tumor assessments. After Screening, tumor assessments (for all tumors except multiple myeloma) will be performed on completion of Cycles 2, 4 and 6 (i.e., on Cycles 3, 5 and 7/Day 1±7 days) and then every 3 months thereafter (e.g., Cycle 10 and 13/Day 1±7 days). Tumor assessment (for multiple myeloma and only NHL/DLBCL with known or suspected marrow involvement) (bone marrow aspiration and biopsy, with PD biomarker analysis, cytogenetic analysis if abnormally present at Screening) will be performed on completion of Cycles 4, 8, 12 and 16 only (i.e., on Cycles 5, 9, 13 and 17/Day 1±7 days). Cytogenetics need not be repeated if normal at Screening. Tumor response will be based on Response Evaluation Criteria in Solid Tumors (RECIST 1.1), International Workshop Criteria (IWC) for NHL/DLBCL or International Uniform Response Criteria (IURC) for Multiple Myeloma, and RANO for GBM, using the post resection MRI scan as the baseline. Given the difficulty in assessing tumor response following salvage surgery, the primary efficacy endpoint for GBM will be the proportion of subjects progression-free at 6 months from Day 1 relative to efficacy evaluable subjects in the GBM type. Subjects will be evaluated for tumor response on completion of Cycle 2, 4, 6, and so on. A descriptive analysis of evidence of anti-tumor activity will be provided based on clinical and radiographic assessments by the investigator, which includes assessment of target lesion, non-target lesion, new lesion and overall response.
# The efficacy variable of focus for Part A will be best overall response. Other preliminary efficacy variables will be summarized using frequency tabulations for categorical variables or descriptive statistics for continuous variables.
# Part A: Accelerated Dose Escalation Results.
# MM = assay: Phase 1/2 study Part B: tumor response, MM; assay type: in vivo, human; conditions: 11 evaluable patients, up to 9 cycles
# Source text: In Part B, subjects may start Compound 1 at the MTD and/or a lower dose level based on safety, PK and PD data from Part A. Approximately 150 subjects will be treated and evaluated for safety and preliminary antitumor activity after every two cycles of therapy. Tumor types include non-small cell lung cancer (NSCLC), glioblastoma multiforme (GBM), hepatocellular carcinoma (HCC), gastrointestinal neuroendocrine tumor of non-pancreatic origin (NET), diffuse large B-cell lymphoma (DLBCL), multiple myeloma (MM), and hormone receptor positive breast cancer (HRPBC). Up to 20 subjects will be enrolled in each tumor type.
# Subjects will be evaluated for efficacy every 2 cycles through cycle 6 and every 3 cycles thereafter. The primary efficacy variable is response. Tumor assessments, including imaging (CT, MRI and/or PET) of the chest and abdomen and other sites as appropriate, will be performed during Screening. Subjects with brain lesions will also have brain scans at Screening and during follow-up tumor assessments. […] Subjects will be evaluated for tumor response on completion of Cycle 2, 4, 6, and so on. […]
# For Part B, efficacy variables to be analyzed include tumor response at the end of treatment, the proportion of subject alive and progression-free, and duration of response. […]
# G144-Luc cells = assay: G144 cancer stem cell derived intracranial glioblastoma model; assay type: in vivo, Nude mice; conditions: 10 mg/kg and 20 mg/kg QD oral, up to 6 weeks; FIG. 15
# Procedure: G144 Cancer Stem Cell Derived Intracranial Glioblastoma Model (Compound 1). An intracranial glioblastoma study was conducted with G144 glioblastoma cells transfected with luciferase (G144-Luc). Nude mice were inoculated intracranially with G144-Luc cells into the brain. Following inoculation of animals, the tumors were allowed to grow for 5 weeks. At the end of 5 weeks following tumor cell inoculation, the mice were imaged using Xenogen imaging system. The mice having tumors with an average flux ranging between 3.71×10^6 and 3.87×10^7 photons/sec were pooled together and randomized into various treatment groups. Compound 1 was formulated in 0.5% CMC and 0.25% Tween 80 in water (as a suspension). The animals were orally administered vehicle (CMC-Tween) or Compound 1 once daily (QD) for up to 6 weeks. Doses of 10 mg/kg and 20 mg/kg Compound 1 were used. The positive control Temozolomide (TMZ) (10 mg/kg, QD) was administered via intra peritoneal (IP) route. Temozolomide was formulated in 5% N-methylpyrrolidone, 45% PEG400 and 50% saline. The animals were monitored for tumor growth by imaging for bioluminescence once a week using Xenogen imaging system. Statistical analysis was performed using a one-way analysis of variance (ANOVA) followed by Dunnett's post-hoc comparison with the vehicle-treated control groups.
# [2] = ER+/Her2− breast cancer subject
smiles,measurement,setting,value
"CO[C@H]1CC[C@H](N2C(=O)CNc3ncc(-c4ccc(C(C)(C)O)nc4)nc32)CC1 [Compound 1, 7-(6-(2-hydroxypropan-2-yl)pyridin-3-yl)-1-((1r,4r)-4-methoxycyclohexyl)-3,4-dihydropyrazino-[2,3-b]pyrazin-2(1H)-one]",regression of target lesions,"[1]; 1 breast cancer subject, FIG. 27",greater than 30%
same,"duration of Partial Response, first restaging scan to last scan",[1]; [2],220 days
same,"duration of partial response, first restaging scan to last dose",[1]; [2],271 days
same,"time to progression, first dose to last dose",[1]; [2],328 days
same,"time to progression, first dose to last scan",[1]; [2],277 days
same,maximum reduction in target lesions,"[1]; ER+/Her2− breast cancer subject, after 10 cycles",50%
same,reduction in target lesions,"[1]; ER+/Her2− breast cancer subject, first restaging after 2 cycles",30%
same,longest duration of SD,[1]; Part A,24 weeks
same,subjects with target lesion responses in the stable range,"[1]; Part A, FIG. 28",Fifteen subjects
same,subjects with Stable Disease at first restaging,"[1]; Part A, after 2 cycles",Eight subjects
same,subjects with PR (best overall response),"[1]; Part A, breast cancer, dose escalated from 30 to 45 mg, more than 11 cycles",One subject
same,tumor responses (IURCMM criteria),MM,No tumor responses
same,intracranial tumor growth,G144-Luc cells,significantly inhibited
